One experiment concerns the target PDHK2 (Homo sapiens (Human), UniProt Q15119). The experiment is described as follows: Biochemical activity testing of PDHK2: PDC inactivation assay. Conditions: human rec PDHK2, PDC inactivation assay; read-out: IC50 PDHK2 (enzyme assay). The source says: Biochemical Activity Testing of PDHK2: PDC Inactivation Assay
The biochemical activity assay for PDHK2 is based on the inactivation of PDC through phosphorylation by PDHK2. The assay is run in two steps: the enzymatic PDHK2 reaction in which isolated PDC is phosphorylated by PDHK2 with ATP as co-substrate and the PDC activity assay in which pyruvate and NAD are converted to acetyl-CoA and NADH. The PDC activity correlates to the increase in NADH and thereby is detectable directly via the increasing fluorescence signal (Exc 340 nm, Em 450 nm). Inhibition of PDHK2 results in a lower phosphorylation status and thereby a less decrease in activity of PDC and a stronger increase in NADH fluorescence signal.
The PDC inactivation assay is performed in Greiner 384-well microtiter plates and is used for high throughput screen. […] The first fluorescence measurement is performed on a Perkin Elmer Envision (Exc 340 nm, Em 450 nm). […] Afterwards a second fluorescence measurement is performed and the PDC activity is calculated by the difference between both measurements. […] The inhibitory values (IC50) were determined using either the program Symyx Assay Explorer® or Condosseo® from GeneData.

The next experiment concerns the target human PDHK2 (12-407) (Homo sapiens (Human), UniProt Q15119). The experiment is described as follows: Isothermal titration calorimetry (ITC) binding. The following applies: 30° C. The method, then:
Isothermal Titration Calorimetry
ITC measurements were performed with a VP-ITC micro calorimeter (Microcal, LLC/GE Healthcare Bio-Sciences AB, Uppsala, Sweden). In general titrations were performed by titrating the protein (50 μM) to the test compound (5 μM) in 12 μl injections. All binding experiments were carried out at 30° C. In general the test compounds were diluted form DMSO stock solutions into the measurement buffer with a maximum final concentration of 1% DMSO. The measurement buffer was 20 mM HEPES, 135 mM KCl, 1 mM TCEP, 2 mM MgCl2, 15 mM NaH2PO4, pH 7.5. The human PDHK2 (12-407) was produced in E. coli as his-tagged protein and purified by affinity chromatography. The tag was removed by side specific proteolysis. Before titration the protein buffer was changed to the measurement buffer containing the same DMSO concentration as the test compound dilution. ITC data analysis was performed using Origin 7 calorimetry software from the same supplier. For most measurements a binding model of one binding site was assumed. According to the applied mathematical model it is possible to calculate the binding constant (KA), the observed binding enthalpy (ΔH^obs) as well as the stoichiometry (N) of the formed complex. Preceding analysis the raw data was corrected for the heats of dilution by extrapolating from the saturation value from the end of titration. In order to allow for direct comparison between the respective experimental series and protein preparations the protein concentration was corrected by referencing titrations to a well behaved standard inhibitor. The apparent stoichiometry values defined the fraction of binding competent protein and compensated for relative errors in protein concentration measurements. This corrected protein concentration was used to set up ITC experiment series with test compounds. Any deviations from ideal 1:1 stoichiometry observed here were attributed to errors in compound concentration. This nominal compound concentration was corrected as well to achieve 1:1 stoichiometry in the fit.
(In general: ITC needs no label: the signal is the heat of the interaction.)

Experiment [1] has as its system PDH-E1alpha (pSer300) in HEK293T cells. The experiment is described as follows: Cellular immunofluorescence assay for compound activity (Anti-PDH-E1alpha pSer300). It counts as cell-based. The following applies: Homo sapiens, HEK-293T, 5 hours incubation, read-out: IC50 (cell data). How it is done:
Cellular Assay for Determination of Compound Activities
Compound activities were determined in a cellular immunofluorescence assay. Human HEK293T cells were seeded into black 384-well plates with clear bottom and grown overnight.
Next day, test compounds were added to the wells and the plates incubated for 5 hours. Following this, cells were fixed with formaldehyde, permeabilised and blocked. The primary antibody, Anti-PDH-E1alpha (pSer300), AP1064 (Merck Millipore) was added and incubated overnight in the plate wells. Next, cells were washed and the secondary antibody, Alexa Fluor 488, goat anti-rabbit ab (A-11008, Invitrogen) was added together with Hoechst 33258 (H3569, Invitrogen) and incubated for 1 hour in the plate wells. Finally, cells were washed and the plates were measured on the laser scanning cytometer acumen hci (TTpLabtech).
The raw data were normalized against a pharmacological inhibitor control and dose response curves were generated by plotting the percent effect values using the software package Genedata screener (Genedata).

The structures appear in SMILES notation.

`COc1ccc(-n2ncc3c2[C@H](C)CN(C(=O)[C@@](C)(O)C(F)(F)F)C3)cn1` [Compound A30, (R)-3,3,3-Trifluoro-2-hydroxy-1-[(R)-1-(6-methoxy-pyridin-3-yl)-7-methyl-1,4,6,7-tetrahydro-pyrazolo[4,3-c]pyridin-5-yl]-2-methyl-propan-1-one]: the IC50 (on PDHK2; in experiment [1]) was under 300 nM in each case. The Kd (usually a measure of binding affinity in units of concentration) at human PDHK2 (12-407) was under 300 nM.

In the case of `COc1ccc(-n2ncc3c2[C@@H](C)CN(C(=O)[C@@](C)(O)C(F)(F)F)C3)cn1` [Compound A31, (R)-3,3,3-Trifluoro-2-hydroxy-1-[(S)-1-(6-methoxy-pyridin-3-yl)-7-methyl-1,4,6,7-tetrahydro-pyrazolo[4,3-c]pyridin-5-yl]-2-methyl-propan-1-one], at PDHK2, the IC50 (in general, the concentration needed to halve the response being measured) fell in the range of 3000 to 50000 nM.

In the case of `C[C@@](O)(C(=O)N1CCc2c(ncn2-c2ccc(F)cc2)C1)C(F)(F)F` [Compound A44, (R)-3,3,3-Trifluoro-1-[1-(4-fluoro-phenyl)-1,4,6,7-tetrahydro-imidazo[4,5-c]pyridin-5-yl]-2-hydroxy-2-methyl-propan-1-one], at human PDHK2 (12-407), the Kd was under 300 nM.

The compound `C[C@@](O)(C(=O)N1CCc2c(ncn2-c2ccc(Cl)cc2)C1)C(F)(F)F` [Compound A45, (R)-1-[1-(4-Chloro-phenyl)-1,4,6,7-tetrahydro-imidazo[4,5-c]pyridin-5-yl]-3,3,3-trifluoro-2-hydroxy-2-methyl-propan-1-one] had a Kd on human PDHK2 (12-407) of under 300 nM.

Values taken from patent US10829489B2, “Bicyclic heterocyclic derivatives” (Merck Patent GmbH, priority 2015, dated 2020).
